# Measured values published in paper PMC6934184, “Selective DNA-PKcs inhibition extends the therapeutic index of localized radiotherapy and chemotherapy” (The Journal of Clinical Investigation, 2019).
# Biological target: T1, IGF1R (Homo sapiens, UniProt P08069)
# T1 construct: purchased Thermo Fisher Scientific (Life Technologies) SelectScreen
# Experiment: SelectScreen Z'LYTE
# Type: biochemical
# Summary of the method: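 NU5455 was profiled across the SelectScreen Broad panel of kinase activity and binding assays. Z'LYTE reactions such as CSF1R ran at apparent Km ATP, while the Adapta CAMK1 assay used ATP listed as 10. Values are given as percent.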
# T1 sequence (P08069 31-1367): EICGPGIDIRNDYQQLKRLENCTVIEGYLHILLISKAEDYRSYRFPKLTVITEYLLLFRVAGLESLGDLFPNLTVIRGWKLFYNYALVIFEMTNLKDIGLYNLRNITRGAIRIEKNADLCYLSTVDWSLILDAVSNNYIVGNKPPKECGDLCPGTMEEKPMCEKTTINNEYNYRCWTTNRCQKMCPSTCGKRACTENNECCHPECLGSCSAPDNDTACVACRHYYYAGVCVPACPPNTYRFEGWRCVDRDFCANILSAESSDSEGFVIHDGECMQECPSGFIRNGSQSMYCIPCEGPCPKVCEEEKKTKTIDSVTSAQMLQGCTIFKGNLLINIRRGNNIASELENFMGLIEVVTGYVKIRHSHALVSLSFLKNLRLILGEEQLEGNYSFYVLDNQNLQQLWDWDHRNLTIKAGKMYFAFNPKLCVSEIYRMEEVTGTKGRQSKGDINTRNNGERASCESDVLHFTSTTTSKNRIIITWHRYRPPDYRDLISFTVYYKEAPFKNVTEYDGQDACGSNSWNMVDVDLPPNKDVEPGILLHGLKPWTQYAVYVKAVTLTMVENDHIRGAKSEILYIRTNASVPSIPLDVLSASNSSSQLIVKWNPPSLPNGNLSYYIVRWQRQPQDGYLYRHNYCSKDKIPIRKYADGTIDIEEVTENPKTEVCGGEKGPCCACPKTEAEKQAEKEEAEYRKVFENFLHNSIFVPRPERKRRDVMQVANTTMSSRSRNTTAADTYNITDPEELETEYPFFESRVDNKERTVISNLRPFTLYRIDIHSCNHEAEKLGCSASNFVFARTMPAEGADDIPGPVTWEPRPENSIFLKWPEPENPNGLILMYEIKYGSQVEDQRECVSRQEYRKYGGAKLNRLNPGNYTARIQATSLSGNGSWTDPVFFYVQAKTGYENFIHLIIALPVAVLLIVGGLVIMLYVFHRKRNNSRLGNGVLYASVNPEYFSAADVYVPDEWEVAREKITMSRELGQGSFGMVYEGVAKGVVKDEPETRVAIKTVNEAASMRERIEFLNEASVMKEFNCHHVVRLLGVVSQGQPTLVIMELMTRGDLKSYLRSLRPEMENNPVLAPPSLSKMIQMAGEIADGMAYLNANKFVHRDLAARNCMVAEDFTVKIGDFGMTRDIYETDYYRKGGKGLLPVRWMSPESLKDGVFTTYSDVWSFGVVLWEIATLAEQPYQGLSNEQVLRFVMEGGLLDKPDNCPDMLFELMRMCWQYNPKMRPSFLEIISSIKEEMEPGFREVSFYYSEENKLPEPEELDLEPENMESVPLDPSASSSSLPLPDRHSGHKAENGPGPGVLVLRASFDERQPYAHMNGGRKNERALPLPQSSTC
structure (smiles),measurement,value
CN(C(=O)CN1CCOCC1)c1ccc2sc3c(-c4cccc5c(=O)cc(N6CC7CCC(C6)O7)oc45)cccc3c2c1 [NU5455],inhibition at 1 µM,9.7%
